Key:
[1] = biological target: T1, MMP-11 (stromelysin-3, mST3) (Mus musculus, UniProt Q02853); assay: Ki determination with fluorogenic synthetic substrates, recombinant MMP-11; assay type: biochemical, murine; conditions: for Ki: Tris/50 mM HCl buffer, pH 6.8, 10 mM CaCl2, 25° C., read-out: affinity constant Ki, MMP-11 mST3
T1 construct: made in house; host or cells: E. coli
T1 sequence (Q02853 102-492): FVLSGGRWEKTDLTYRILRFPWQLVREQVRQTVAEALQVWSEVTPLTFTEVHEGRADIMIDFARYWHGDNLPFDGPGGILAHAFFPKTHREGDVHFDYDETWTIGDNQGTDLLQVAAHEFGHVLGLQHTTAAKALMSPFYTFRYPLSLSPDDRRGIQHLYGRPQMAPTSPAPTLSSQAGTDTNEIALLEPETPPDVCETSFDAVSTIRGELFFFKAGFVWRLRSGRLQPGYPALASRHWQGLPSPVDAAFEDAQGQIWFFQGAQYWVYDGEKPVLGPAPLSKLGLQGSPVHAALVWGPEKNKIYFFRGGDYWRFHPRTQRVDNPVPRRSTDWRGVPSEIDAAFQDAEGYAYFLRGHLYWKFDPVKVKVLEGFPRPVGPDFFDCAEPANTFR
Experimental: (§1) The MMPs used were produced in recombinant form, in an E. coli expression system, and then purified using different types of chromatographies. Apart from stromelysin-3 (MMP-11), the MMPs produces correspond to human sequences. The Stromelysin-3 used in this study corresponds to the murine form.
(§2) The activity of each MMP was determined using two fluorogenic synthetic substrates. The cutoff of said substrates, which generates a fluorescent signal proportional to the quantity of split substrate, enables a precise determination of the kinetic parameters. The affinity constants Ki were calculated using the equation of Horowitz et al, Proc. Natl. Acad. Sci. USA, 1987, 84, p. 6654-6658 [14], accounting for the dependency of the percentage of inhibition measured experimentally according to the concentration of inhibitor, as a function of the enzyme and substrate concentration.
(§3) The experiments for conducted in a Tris/50 mM HCl buffer, pH 6.8, 10 mM CaCl2, 25° C.

[2] = biological target: T2, MMP-2 (Gel-A) (Homo sapiens, UniProt P08253); assay: Ki determination with fluorogenic synthetic substrates, recombinant MMP-2; assay type: biochemical; conditions: for Ki: Tris/50 mM HCl buffer, pH 6.8, 10 mM CaCl2, 25° C., read-out: affinity constant Ki, MMP-2 Gel-A
T2 construct: made in house; host or cells: E. coli
T2 sequence (P08253 110-660): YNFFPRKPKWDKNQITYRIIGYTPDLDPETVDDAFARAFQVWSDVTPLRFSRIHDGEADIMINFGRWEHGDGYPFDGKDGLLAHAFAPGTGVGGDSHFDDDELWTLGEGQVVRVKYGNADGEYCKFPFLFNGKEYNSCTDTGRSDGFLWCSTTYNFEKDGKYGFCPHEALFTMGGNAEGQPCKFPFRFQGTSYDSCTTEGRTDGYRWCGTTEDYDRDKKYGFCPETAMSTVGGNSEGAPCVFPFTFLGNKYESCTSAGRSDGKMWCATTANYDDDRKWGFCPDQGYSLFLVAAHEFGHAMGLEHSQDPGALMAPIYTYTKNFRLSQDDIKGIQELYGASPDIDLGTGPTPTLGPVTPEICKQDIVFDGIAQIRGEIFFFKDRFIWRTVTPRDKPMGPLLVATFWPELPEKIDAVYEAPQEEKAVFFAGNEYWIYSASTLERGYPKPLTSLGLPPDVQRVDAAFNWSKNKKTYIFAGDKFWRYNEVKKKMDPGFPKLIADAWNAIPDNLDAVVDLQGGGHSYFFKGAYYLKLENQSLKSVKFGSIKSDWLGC
Experimental: as §1, §2, §3

[3] = biological target: T3, MMP-9 (Gel-B) (Homo sapiens, UniProt P14780); assay: Ki determination with fluorogenic synthetic substrates, recombinant MMP-9; assay type: biochemical; conditions: for Ki: Tris/50 mM HCl buffer, pH 6.8, 10 mM CaCl2, 25° C., read-out: affinity constant Ki, MMP-9 Gel-B
T3 construct: made in house; host or cells: E. coli
T3 sequence (P14780 94-707): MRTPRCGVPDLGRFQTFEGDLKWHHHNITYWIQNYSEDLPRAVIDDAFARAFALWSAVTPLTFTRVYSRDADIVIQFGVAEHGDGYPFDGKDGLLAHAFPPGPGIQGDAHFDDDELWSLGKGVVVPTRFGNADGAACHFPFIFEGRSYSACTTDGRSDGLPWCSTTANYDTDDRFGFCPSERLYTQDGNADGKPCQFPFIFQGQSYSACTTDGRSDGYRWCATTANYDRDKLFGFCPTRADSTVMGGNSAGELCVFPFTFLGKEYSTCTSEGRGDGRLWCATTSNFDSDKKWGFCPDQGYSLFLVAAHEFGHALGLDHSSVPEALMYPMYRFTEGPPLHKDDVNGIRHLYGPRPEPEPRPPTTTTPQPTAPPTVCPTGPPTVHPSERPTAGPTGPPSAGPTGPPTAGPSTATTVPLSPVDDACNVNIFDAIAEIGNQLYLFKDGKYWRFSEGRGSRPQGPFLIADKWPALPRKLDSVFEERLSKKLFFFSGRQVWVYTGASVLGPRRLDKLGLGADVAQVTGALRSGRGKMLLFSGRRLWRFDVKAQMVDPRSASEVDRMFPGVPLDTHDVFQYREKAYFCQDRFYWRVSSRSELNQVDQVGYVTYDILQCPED
Experimental: as §1, §2, §3

[4] = biological target: T4, MMP-14 (MT1-MMP) (Homo sapiens, UniProt P50281); assay: Ki determination with fluorogenic synthetic substrates, recombinant MMP-14; assay type: biochemical; conditions: for Ki: Tris/50 mM HCl buffer, pH 6.8, 10 mM CaCl2, 25° C., read-out: affinity constant Ki, MMP-14 MT1-MMP
T4 construct: made in house; host or cells: E. coli
Experimental: as §1, §2, §3

[5] = biological target: T5, MMP-1 (HFC) (Homo sapiens, UniProt P03956); assay: Ki determination with fluorogenic synthetic substrates, recombinant MMP-1; assay type: biochemical; conditions: for inhibition at 1 µM: @ 1 μM inhibitor, read-out: percentage of inhibition, MMP-1
T5 construct: made in house; host or cells: E. coli
T5 sequence (P03956 100-469): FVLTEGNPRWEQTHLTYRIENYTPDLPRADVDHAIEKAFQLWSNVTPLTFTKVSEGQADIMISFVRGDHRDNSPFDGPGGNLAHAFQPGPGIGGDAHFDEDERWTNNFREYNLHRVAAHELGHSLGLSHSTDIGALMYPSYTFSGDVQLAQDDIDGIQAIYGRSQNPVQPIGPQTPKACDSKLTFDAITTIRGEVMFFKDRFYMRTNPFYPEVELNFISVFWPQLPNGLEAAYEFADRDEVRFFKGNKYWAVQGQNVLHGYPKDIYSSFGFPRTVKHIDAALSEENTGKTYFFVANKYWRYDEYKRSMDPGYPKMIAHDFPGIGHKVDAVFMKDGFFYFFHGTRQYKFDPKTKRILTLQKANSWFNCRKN
Experimental: as §1, §2, §3

[6] = biological target: T6, MMP-7 (Matrilysin) (Homo sapiens, UniProt P09237); assay: Ki determination with fluorogenic synthetic substrates, recombinant MMP-7; assay type: biochemical; conditions: for percentage of inhibition, MMP-7: @ 50 mM inhibitor; for inhibition at 1 µM: @ 1 μM inhibitor, read-out: percentage of inhibition, MMP-7; for Ki: Tris/50 mM HCl buffer, pH 6.8, 10 mM CaCl2, 25° C., read-out: affinity constant Ki, MMP-7 Matrilysin
T6 construct: made in house; host or cells: E. coli
T6 sequence (P09237 95-267): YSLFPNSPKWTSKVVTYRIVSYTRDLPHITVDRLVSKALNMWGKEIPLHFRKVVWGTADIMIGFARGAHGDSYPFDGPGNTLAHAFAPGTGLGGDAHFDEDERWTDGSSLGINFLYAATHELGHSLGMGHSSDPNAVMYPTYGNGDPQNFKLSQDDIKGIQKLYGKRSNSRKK
Experimental: as §1, §2, §3

[7] = biological target: T7, MMP-8 (HNC) (Homo sapiens, UniProt P22894); assay: Ki determination with fluorogenic synthetic substrates, recombinant MMP-8; assay type: biochemical; conditions: for Ki: Tris/50 mM HCl buffer, pH 6.8, 10 mM CaCl2, 25° C., read-out: affinity constant Ki, MMP-8 HNC
T7 construct: made in house; host or cells: E. coli
T7 sequence (P22894 101-467): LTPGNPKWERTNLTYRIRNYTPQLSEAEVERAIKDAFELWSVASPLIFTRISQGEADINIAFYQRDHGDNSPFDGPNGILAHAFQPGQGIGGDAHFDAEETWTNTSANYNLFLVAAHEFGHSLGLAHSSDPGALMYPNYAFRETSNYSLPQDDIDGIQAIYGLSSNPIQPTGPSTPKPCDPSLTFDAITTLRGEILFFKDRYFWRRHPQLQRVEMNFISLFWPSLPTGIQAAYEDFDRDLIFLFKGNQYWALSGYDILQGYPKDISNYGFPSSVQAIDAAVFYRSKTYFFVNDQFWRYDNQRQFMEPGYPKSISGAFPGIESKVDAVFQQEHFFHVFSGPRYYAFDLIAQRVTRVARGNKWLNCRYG
Experimental: as §1, §2, §3

| SMILES | Ki [1] | Ki [2] | Ki [3] | Ki [4] | Ki [7] | inhibition at 1 µM [5] | inhibition at 1 µM [6] | also measured |
| --- | --- | --- | --- | --- | --- | --- | --- | --- |
| COc1ccc(CSCC(CP(=O)(O)C(Cc2ccccc2)NC(=O)OCc2ccccc2)C(=O)NC(Cc2c[nH]c3ccccc23)C(N)=O)cc1 (centres unmarked) [Compound 18] | 2 nM | 6 nM | 3 nM | 22 nM | 0.7 nM |  |  | inhibitory power on MMP-11, in words [1]: very powerful inhibitor; inhibitory power on MMP-2, in words [2]: very powerful inhibitor; inhibitory power on MMP-9, in words [3]: very powerful inhibitor; percentage of inhibition, MMP-1 ([5]; @ 2 mM inhibitor): 13% @ 2 mM; percentage of inhibition, MMP-7 [6]: 84% @ 50 mM; inhibitory power on MMP-8, in words [7]: very powerful inhibitor |
| NC(=O)[C@@H](Cc1c[nH]c2ccccc12)NC(=O)C(CCCc1ccccc1)CP(=O)(O)C(Cc1ccccc1)NC(=O)OCc1ccccc1 (some centres unmarked) [Compound 23] |  |  |  |  |  |  |  | percentage of inhibition, MMP-11 ([1]; @ 1 mM inhibitor): 1% @ 1 mM; percentage of inhibition, MMP-2 ([2]; @ 2 mM inhibitor): 6% @ 2 mM; percentage of inhibition, MMP-9 ([3]; @ 2 mM inhibitor): 14% @ 2 mM; percentage of inhibition, MMP-14 ([4]; @ 10 mM inhibitor): 10% @ 10 mM; percentage of inhibition, MMP-1 ([5]; @ 10 mM inhibitor): 3% @ 10 mM; percentage of inhibition, MMP-7 [6]: 18% @ 50 mM; percentage of inhibition, MMP-8 ([7]; @ 1 mM inhibitor): 2% @ 1 mM |
| CC(=O)NC(Cc1ccccc1)P(=O)(O)CC(CCCc1ccccc1)C(=O)NC(Cc1c[nH]c2ccccc12)C(N)=O (centres unmarked) [Compound 25] | 20 nM | 26 nM | 35 nM | 90 nM | 3.5 nM | 29% | 16% |  |
| NC(=O)C(Cc1c[nH]c2ccccc12)NC(=O)C(CCCc1ccccc1)CP(=O)(O)C(Cc1ccccc1)NC(=O)COCc1ccccc1 (centres unmarked) [Compound 26] | 5 nM | 8 nM | 10 nM | 40 nM | 2.5 nM | 28% | 33% |  |
| NC(=O)C(Cc1c[nH]c2ccccc12)NC(=O)C(CCCc1ccccc1)CP(=O)(O)C(Cc1ccccc1)NC(=O)CNc1ccccc1 (centres unmarked) [Compound 27] | 15 nM | 17 nM | 6 nM | 73 nM | 4.5 nM | 33% | 16% |  |
| NC(=O)C(Cc1c[nH]c2ccccc12)NC(=O)C(CCCc1ccccc1)CP(=O)(O)C(Cc1ccccc1)NC(=O)CNc1cccc(Cl)c1 (centres unmarked) [Compound 28] | 3.8 nM | 9 nM | 6 nM | 45 nM | 4 nM | 63% | 25% |  |
| NC(=O)C(Cc1c[nH]c2ccccc12)NC(=O)C(CCCc1ccccc1)CP(=O)(O)C(Cc1ccccc1)NC(=O)CNc1cc(Cl)ccc1O (centres unmarked) [Compound 29] | 10 nM | 30 nM | 34 nM | 63 nM | 7.5 nM | 55% | 48% |  |
| NC(=O)C(Cc1c[nH]c2ccccc12)NC(=O)C(CCCc1ccccc1)CP(=O)(O)C(Cc1ccccc1)NC(=O)c1cc2c(Cl)cc(Cl)cc2[nH]1 (centres unmarked) [Compound 31] | 0.9 nM | 24 nM | 7 nM | 32 nM | 5 nM |  |  | inhibitory power on MMP-11, in words [1]: very powerful inhibitor; Ki ([5]; Tris/50 mM HCl buffer, pH 6.8, 10 mM CaCl2, 25° C., read-out: affinity constant Ki, MMP-1 HFC): 36 nM; Ki [6]: 117 nM |
| NC(=O)C(Cc1c[nH]c2ccccc12)NC(=O)C(CCCc1ccccc1)CP(=O)(O)C(Cc1ccccc1)NC(=O)c1ccc2ccccc2n1 (centres unmarked) [Compound 32] | 4.2 nM | 19 nM | 13 nM | 60 nM | 5 nM | 78% |  | Ki [6]: 370 nM |
| NC(=O)C(Cc1c[nH]c2ccccc12)NC(=O)C(CCCc1ccccc1)CP(=O)(O)C(Cc1ccccc1)NC(=O)c1cc2cc(Cl)cc(Cl)c2oc1=O (centres unmarked) [Compound 33] | 5 nM | 100 nM | 110 nM | 217 nM | 17 nM | 47% | 37% |  |
| CC(NC(=O)OCc1ccccc1)C(=O)NC(Cc1ccccc1)P(=O)(O)CC(CCCc1ccccc1)C(=O)NC(Cc1c[nH]c2ccccc12)C(N)=O (centres unmarked) [Compound 34] | 8 nM | 11 nM | 10 nM | 41 nM | 5.5 nM | 24% | 18% |  |
| CC(C)CC(NC(=O)OCc1ccccc1)C(=O)NC(Cc1ccccc1)P(=O)(O)CC(CCCc1ccccc1)C(=O)NC(Cc1c[nH]c2ccccc12)C(N)=O (centres unmarked) [Compound 35] | 6 nM | 40 nM | 22 nM | 53 nM | 7 nM | 20% | 32% |  |

Reference: US6630501B1, “Phosphinic pseudo-peptides that may be used as matrix zinc metalloprotease inhibitors” (Commissariat a l'energie Atomique, priority 1999, dated 2003)
